Molecular target: T1, human Npt2a (Homo sapiens, UniProt Q06495)
T1 construct: expressed in transfected cells
T1 sequence (Q06495 1-639): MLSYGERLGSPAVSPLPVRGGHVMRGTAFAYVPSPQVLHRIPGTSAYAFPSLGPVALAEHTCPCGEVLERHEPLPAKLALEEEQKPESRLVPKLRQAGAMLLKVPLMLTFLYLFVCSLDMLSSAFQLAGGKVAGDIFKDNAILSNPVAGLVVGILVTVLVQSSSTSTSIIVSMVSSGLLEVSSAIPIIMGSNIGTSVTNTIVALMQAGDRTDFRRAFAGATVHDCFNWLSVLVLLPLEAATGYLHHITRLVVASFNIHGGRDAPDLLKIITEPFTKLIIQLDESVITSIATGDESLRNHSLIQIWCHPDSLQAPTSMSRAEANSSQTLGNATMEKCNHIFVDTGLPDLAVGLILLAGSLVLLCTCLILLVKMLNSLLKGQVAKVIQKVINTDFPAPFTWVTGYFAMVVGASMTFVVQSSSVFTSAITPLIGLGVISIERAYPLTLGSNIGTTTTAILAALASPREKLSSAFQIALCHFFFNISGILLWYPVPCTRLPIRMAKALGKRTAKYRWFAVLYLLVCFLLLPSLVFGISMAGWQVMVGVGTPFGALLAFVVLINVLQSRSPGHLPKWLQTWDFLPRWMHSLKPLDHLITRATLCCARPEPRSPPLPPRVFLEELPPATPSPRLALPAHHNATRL
Experiment: Npt2a activity cell based assay, membrane potential dye, CHO T-REx hNpt2a cells
Conditions: doxycycline-induced, depolarization by sodium phosphate influx, average or median values if tested more than once
How it was run: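 Cells were doxycycline-induced CHO T-REx hNpt2a, dye-loaded and pretreated 5 min at RT with 1 nM–50 μM compound in Na-free pH 7.4 buffer. IC50 was fit to the post/pre-trigger fluorescence ratio.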

Row | Compound | IC50 [µM]
1 | COc1c(C)nn(-c2cc(Nc3c(C)nn(-c4ccc(F)cc4)c3C)ncn2)c1C [Example 463, N-[1-(4-fluorophenyl)-3,5-dimethyl-1H-pyrazol-4-yl]-6-(4-methoxy-3,5-dimethyl-1H-pyrazol-1-yl)pyrimidin-4-amine] | 0.034
2 | Cc1nnc(-c2c(C)nn(-c3cc(Nc4c(C)c(-c5ccc(F)cc5)nn4CC4CC4)ncn3)c2C)o1 [Example 372, N-[1-(cyclopropylmethyl)-3-(4-fluorophenyl)-4-methyl-1H-pyrazol-5-yl]-6-[3,5-dimethyl-4-(5-methyl-1,3,4-oxadiazol-2-yl)-1H-pyrazol-1-yl]pyrimidin-4-amine] | 0.007
3 | Cc1nn(-c2cc(Nc3c(C)c(-c4ccc(C(F)F)cc4)nn3CC3CC3)ncn2)c(C)c1C(O)C1CC1 (single isomer, unassigned) [Example 495, Cyclopropyl {1-[6-({1-(cyclopropylmethyl)-3-[4-(difluoromethyl)phenyl]-4-methyl-1H-pyrazol-5-yl}amino)pyrimidin-4-yl]-3,5-dimethyl-1H-pyrazol-4-yl}methanol] | 0.011
4 | CCOC(=O)c1c(C)nn(-c2cc(Nc3c(C)c(-c4ccc(Cl)cc4)nn3C)ncn2)c1C [Example 367, ethyl 1-(6-{[3-(4-chlorophenyl)-1,4-dimethyl-1H-pyrazol-5-yl]amino}pyrimidin-4-yl)-3,5-dimethyl-1H-pyrazole-4-carboxylate] | 0.04
5 | Cc1nn(-c2cc(Nc3nn(CC(F)F)c(-c4ccc(F)cc4)c3Cl)ncn2)c(C)c1Cl [Example 130, N-[4-chloro-1-(2,2-difluoroethyl)-5-(4-fluorophenyl)-1H-pyrazol-3-yl]-6-(4-chloro-3,5-dimethyl-1H-pyrazol-1-yl)pyrimidin-4-amine] | 0.028
6 | Cc1cc(C(F)F)n(-c2cc(Nc3c(C)c(-c4ccc(F)cn4)nn3CC3CC3)ncn2)n1 [Example 422, N-[1-(cyclopropylmethyl)-3-(5-fluoropyridin-2-yl)-4-methyl-1H-pyrazol-5-yl]-6-[5-(difluoromethyl)-3-methyl-1H-pyrazol-1-yl]pyrimidin-4-amine] | 0.24
7 | CCc1c(Nc2cc(-n3nc(C)c(C(=O)N4CCC4)c3C)ncn2)nn(C)c1-c1ccc(F)cc1 [Example 123, azetidin-1-yl[1-(6-{[4-ethyl-5-(4-fluorophenyl)-1-methyl-1H-pyrazol-3-yl]amino}pyrimidin-4-yl)-3,5-dimethyl-1H-pyrazol-4-yl]methanone] | 0.395
8 | Cc1nn(-c2cc(Nc3c(C)c(-c4ccc(F)cc4)nn3CC3CC3)ncn2)c(C)c1C(F)(F)F [Example 381, N-[1-(cyclopropylmethyl)-3-(4-fluorophenyl)-4-methyl-1H-pyrazol-5-yl]-6-[3,5-dimethyl-4-(trifluoromethyl)-1H-pyrazol-1-yl]pyrimidin-4-amine] | 0.008
9 | COCCn1nc(-c2ccc(C(F)F)cc2)c(C)c1Nc1cc(-n2nc(C)cc2C(F)F)ncn1 [Example 538, 6-[5-(difluoromethyl)-3-methyl-1H-pyrazol-1-yl]-N-{3-[4-(difluoromethyl)phenyl]-1-(2-methoxyethyl)-4-methyl-1H-pyrazol-5-yl}pyrimidin-4-amine] | 0.012
10 | COc1c(-c2ccc(C#N)cc2)nn(CC2CC2)c1Nc1cc(-n2nc(C)c(C(C)OC)c2C)ncn1 (single isomer, unassigned) [Example 335] | 0.051
11 | CCOC(=O)c1c(C)nn(-c2cc(Nc3c(C)c(-c4ccc(F)cc4)nn3C)ncn2)c1C [Example 59, ethyl 1-(6-{[3-(4-fluorophenyl)-1,4-dimethyl-1H-pyrazol-5-yl]amino}pyrimidin-4-yl)-3,5-dimethyl-1H-pyrazole-4-carboxylate] | 0.012
12 | COc1c(-c2ccc(F)cc2)nn(CC2CC2)c1Nc1cc(-n2nc(C)c(C(C)O)c2C)ncn1 (racemic) [Example 336, (±)-1-[1-(6-{[1-(cyclopropylmethyl)-3-(4-fluorophenyl)-4-methoxy-1H-pyrazol-5-yl]amino}pyrimidin-4-yl)-3,5-dimethyl-1H-pyrazol-4-yl]ethanol] | 1.65
13 | Cc1nn(-c2cc(Nc3[nH]nc(-c4ccc(F)cc4F)c3Cl)ncn2)c(C)c1Cl [Example 3, N-[4-chloro-3-(2,4-difluorophenyl)-1H-pyrazol-5-yl]-6-(4-chloro-3,5-dimethyl-1H-pyrazol-1-yl)pyrimidin-4-amine] | 0.013
14 | CCOC(=O)Cc1c(C)nn(-c2cc(Nc3c(C)nn(-c4ccc(C#N)cc4)c3C)ncn2)c1C [Example 257, ethyl [1-(6-{[1-(4-cyanophenyl)-3,5-dimethyl-1H-pyrazol-4-yl]amino}pyrimidin-4-yl)-3,5-dimethyl-1H-pyrazol-4-yl]acetate] | 0.074
15 | CCc1c(Nc2cc(-n3nc(C)c(C(=O)N4CCCCC4)c3C)ncn2)nn(C)c1-c1ccc(F)cc1 [Example 105, [1-(6-{[4-ethyl-5-(4-fluorophenyl)-1-methyl-1H-pyrazol-3-yl]amino}pyrimidin-4-yl)-3,5-dimethyl-1H-pyrazol-4-yl](piperidin-1-yl)methanone] | 0.235
16 | Cc1nn(-c2cc(Nc3c(C)c(-c4ccc(C#N)cc4)nn3CC3CC3)ncn2)c(C)c1C(O)C(F)(F)F (single isomer, unassigned) [Example 360, 4-{1-(cyclopropylmethyl)-5-[(6-{3,5-dimethyl-4-[(1 S)-2,2,2-trifluoro-1-hydroxyethyl]-1H-pyrazol-1-yl}pyrimidin-4-yl)amino]-4-methyl-1H-pyrazol-3-yl}benzonitrile] | 0.006
17 | Cc1nn(-c2cc(Nc3c(C)c(-c4ccc(C(F)F)nc4)nn3C)ncn2)c(C)c1Cl [Example 474, 6-(4-chloro-3,5-dimethyl-1H-pyrazol-1-yl)-N-{3-[6-(difluoromethyl)pyridin-3-yl]-1,4-dimethyl-1H-pyrazol-5-yl}pyrimidin-4-amine] | 0.234
18 | COc1c(Nc2cc(-n3nc(C)c(OC)c3C)ncn2)nn(C)c1-c1ccc(C#N)cc1 [Example 493, 4-(4-methoxy-3-{[6-(4-methoxy-3,5-dimethyl-1H-pyrazol-1-yl)pyrimidin-4-yl]amino}-1-methyl-1H-pyrazol-5-yl)benzonitrile] | 0.625
19 | CNc1ccc(-c2nn(CC3CC3)c(Nc3cc(-n4nc(C)c(C(F)(F)F)c4C)ncn3)c2C)cc1 [Example 488, N-{1-(cyclopropylmethyl)-4-methyl-3-[4-(methylamino)phenyl]-1H-pyrazol-5-yl}-6-[3,5-dimethyl-4-(trifluoromethyl)-1H-pyrazol-1-yl]pyrimidin-4-amine] | 0.065
20 | COc1c(Nc2cc(-n3nc(C)c(Cl)c3C)ncn2)nn(C)c1-c1ccc(C#N)cc1 [Example 540, 4-(3-{[6-(4-chloro-3,5-dimethyl-1H-pyrazol-1-yl)pyrimidin-4-yl]amino}-4-methoxy-1-methyl-1H-pyrazol-5-yl)benzonitrile] | 0.017
21 | CCOC(=O)c1c(C)nn(-c2cc(Nc3nn(C)c(-c4ccc(C#N)cc4)c3C)ncn2)c1C [Example 299, ethyl 1-(6-{[5-(4-cyanophenyl)-1,4-dimethyl-1H-pyrazol-3-yl]amino}pyrimidin-4-yl)-3,5-dimethyl-1H-pyrazole-4-carboxylate] | 0.005
22 | CCc1c(Nc2cc(-n3nc(C)c(C(=O)N4CCCC4C)c3C)ncn2)nn(C)c1-c1ccc(F)cc1 (single isomer, unassigned) [Example 107, [1-ent-(6-{[4-ethyl-5-(4-fluorophenyl)-1-methyl-1H-pyrazol-3-yl]amino}pyrimidin-4-yl)-3,5-dimethyl-1H-pyrazol-4-yl](2-methylpyrrolidin-1-yl)methanone] | 0.293

From patent US11208400B2, “Substituted 6-(1H-pyrazol-1-yl)pyrimidin-4-amine derivatives and uses thereof” (Bayer Aktiengesellschaft, priority 2016, dated 2021)
